Measurements as given in patent US20230391783A1, “COMPOUND CONTAINING 2,4-THIAZOLE RING, PREPARATION METHOD THEREFOR, AND APPLICATION THEREOF” (SHANDONG UNIVERSITY, priority 2021, published 2023).

Tested on: lymphocytes (fresh spleen cells)
Experiment: Lymphocyte proliferation assay (ConA-induced spleen cells)
Type: cell-based, rat
Settings: 48 hours; for IC50: Rattus norvegicus, inhibition of lymphocyte proliferation, 5 μg/mL ConA; for Inhibition rate (%): lymphocyte proliferation induced with 5 μg/mL ConA, test concentration not given
Protocol: Lymphocytotoxicity test: rats were euthanized by spinal dislocation method, their spleens were aseptically removed and ground to make a single cell suspension. After removing red blood cells with 2 mL of red blood cell lysis buffer, the cell concentration was adjusted to 2×10^6 cells/mL using RPMI-1640 medium containing 10% fetal bovine serum (FBS). Next, 100 μL of the 2×10^6 cells/mL cell suspension and 100 μL of the appropriate concentration of the tested compound were added to each well of a 96-well plate, and the plate was incubated at 37° C. with 5% CO2 for 48 hours. At the end of the incubation period, 10 μL of CCK8 was added to each well, and the plate was returned to the incubator for 5-7 hours. The OD450 value was then measured at 450 nm using an enzyme-linked immunosorbent assay reader.
Lymphocyte proliferation assay: fresh spleen cells at a concentration of 2×10^6 cells/mL were incubated for 48 hours in an incubator maintained at 37° C. and 5% CO2 for 48 hours, and the culture medium was induced for cell proliferation with 5 μg/mL of ConA, and the appropriate concentration of the tested compound was added to test its inhibitory activity on lymphocyte proliferation. The test results of some compounds are shown in the table below and figures accompanying the application: […]

SMILES	IC50 [nM]	Inhibition rate (%)
O=C(c1csc(-c2cnn3cccnc23)n1)N1CCC[C@H]1c1cccnc1 [IA-1]	210 ± 8.87	81.38
O=C(NCc1cccnc1)c1csc(NC(=O)c2cnn3cccnc23)n1 [IA-2]	439 ± 24.2	65.17
CC(C)=CCOC(=O)c1csc(-c2cnn3cccnc23)n1 [IA-4]	438 ± 12.3	28.23
O=C(NCc1ccc(F)cc1F)c1csc(-c2cnn3ccccc23)n1 [IA-5]		47.15
O=C(Nc1ccccc1)c1csc(-c2cnn3cccnc23)n1 [IA-6]		40.69
CC(C)=CCC/C(C)=C/COC(=O)c1csc(-c2cnn3cccnc23)n1 [IA-7]	487 ± 18.3	52.55
O=C(NCc1ccc(Cl)cc1Cl)c1csc(-c2cnn3cccnc23)n1 [IA-8]		43.39
O=C(c1csc(-c2cnn3cccnc23)n1)N1CCC[C@H]1c1ccccc1 [IA-9]	399 ± 15.2	58.26
O=C(Nc1cccnc1)c1csc(-c2cnn3cccnc23)n1 [IA-10]	421 ± 21.1	59.61
O=C(NCc1ccccc1)c1csc(-c2cnn3cccnc23)n1 [IA-11]	263 ± 13.4	70.42
O=C(NCCc1cccnc1)c1csc(-c2cnn3cccnc23)n1 [IA-12]	236 ± 17.2	83.63
O=C(c1csc(-c2cnn3cccnc23)n1)N1CCC[C@H]1c1ccncc1 [IA-13]	410 ± 33.5	59.01
COC(=O)[C@@H]1C[C@@H](O)CN1C(=O)c1csc(-c2cnn3cccnc23)n1 [IA-15]		30.78
COC(=O)C1CCCCN1C(=O)c1csc(-c2cnn3cccnc23)n1 (stereo not drawn) [IA-16]		28.83
O=C(c1csc(-c2cnn3cccnc23)n1)N1CCC[C@H]1c1cc(F)ccc1F [IA-17]	436 ± 33.4	46.55
O=C(NCCC(F)(F)F)c1csc(-c2cnn3cccnc23)n1 [IA-18]		43.09

SMILES	IC50 [nM]	Inhibition rate (%)
O=C(NCC(O)C(F)(F)F)c1csc(-c2cnn3cccnc23)n1 (stereo not drawn) [IA-19]		41.89
O=C(NC1CCC(C(F)(F)F)CC1)c1csc(-c2cnn3cccnc23)n1 (stereo not drawn) [IA-20]		42.49
O=C(NCCc1ccccn1)c1csc(-c2cnn3cccnc23)n1 [IA-21]	488 ± 22	44.14
O=C(NCc1cncnc1)c1csc(-c2cnn3cccnc23)n1 [IA-22]		32.73
O=C(c1csc(-c2cnn3cccnc23)n1)N1CCN(c2cccnc2)CC1 [IA-23]	350 ± 17	60.57
CC(C)=CCC/C(C)=C/CNC(=O)c1csc(-c2cnn3cccnc23)n1 [IA-24]	457 ± 30.6	55.71
Cc1cnc2c(-c3nc(C(=O)NCCc4ccccn4)cs3)cnn2c1 [IA-25]		37.24
O=C(c1nc(C(=O)N2CCC[C@H]2c2cccnc2)cs1)c1c[nH]c2ccccc12 [IIA-1]		65.32
CC(C)=CCC/C(C)=C/CC/C(C)=C/COC(=O)c1csc(C(=O)c2c[nH]c3ccccc23)n1 [IIA-2]		25.83
C#COC(=O)c1csc(C(=O)c2c[nH]c3ccccc23)n1 [IIA-3]		47.15
CC(C)=CCOC(=O)c1csc(C(=O)c2c[nH]c3ccccc23)n1 [IIA-4]		48.95
CC(C)=CCC/C(C)=C/COC(=O)c1csc(C(=O)c2c[nH]c3ccccc23)n1 [IIA-5]		57.51
O=C(NCc1cccnc1)c1csc(C(=O)c2c[nH]c3ccccc23)n1 [IIA-6]	479 ± 14.2	56.46
CC1CCC2(OC1)OC1CC3C4CC=C5CC(OC(=O)c6csc(C(=O)c7c[nH]c8ccccc78)n6)CCC5(C)C4CCC3(C)C1C2C (stereo not drawn) [IIA-7]		38.74
CC(C)CCCC(C)C1CCC2C3CC=C4CC(OC(=O)c5csc(C(=O)c6c[nH]c7ccccc67)n5)CCC4(C)C3CCC12C (stereo not drawn) [IIA-8]		50.45
